Experimental data as given in PubChem BioAssay AID1963981 (Molecular Pharmacology Branch, DTP, NCI, 2024).

Test system: 354836-022-R-J1-PDC multicell spheroid viability
Assay: Anticancer human tumor 354836-022-R-J1-PDC patient-derived head and neck squamous cell carcinoma cell line growth inhibition [PI3K]
Conditions: for IC50: curve of first compound; for viability, T/C: stronger effect = lower value
Summary of the method: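 Tumor cells were combined with HUVEC and MSCs into spheroids, then dosed with PI3K-inhibitor combinations over half-log ranges capped near clinical Cmax or 10 microM.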

[1] = second compound 0.0316 µM, first compound 0.0316 µM
[2] = second compound 0.0316 µM, first compound 0.1 µM
[3] = second compound 0.0316 µM, first compound 0.316 µM
[4] = second compound 0.0316 µM, first compound 1 µM
[5] = second compound 0.0316 µM, first compound 3.16 µM
[6] = second compound 0.0316 µM, first compound 10 µM
[7] = second compound 0.1 µM, first compound 0.0316 µM
[8] = second compound 0.1 µM, first compound 0.1 µM
[9] = second compound 0.1 µM, first compound 0.316 µM
[10] = second compound 0.1 µM, first compound 1 µM
[11] = second compound 0.1 µM, first compound 3.16 µM
[12] = second compound 0.1 µM, first compound 10 µM
[13] = second compound 0.316 µM, first compound 0.0316 µM
[14] = second compound 0.316 µM, first compound 0.1 µM
[15] = second compound 0.316 µM, first compound 0.316 µM
[16] = second compound 0.316 µM, first compound 1 µM
[17] = second compound 0.316 µM, first compound 3.16 µM
[18] = second compound 0.316 µM, first compound 10 µM
[19] = second compound 1 µM, first compound 0.0316 µM
[20] = second compound 1 µM, first compound 0.1 µM
[21] = second compound 1 µM, first compound 0.316 µM
[22] = second compound 1 µM, first compound 1 µM
[23] = second compound 1 µM, first compound 3.16 µM
[24] = second compound 1 µM, first compound 10 µM
[25] = second compound 3.16 µM, first compound 0.0316 µM
[26] = second compound 3.16 µM, first compound 0.1 µM
[27] = second compound 3.16 µM, first compound 0.316 µM
[28] = second compound 3.16 µM, first compound 1 µM
[29] = second compound 3.16 µM, first compound 3.16 µM
[30] = second compound 3.16 µM, first compound 10 µM
[31] = second compound 10 µM, first compound 0.0316 µM
[32] = second compound 10 µM, first compound 0.1 µM
[33] = second compound 10 µM, first compound 0.316 µM
[34] = second compound 10 µM, first compound 1 µM
[35] = second compound 10 µM, first compound 3.16 µM
[36] = second compound 10 µM, first compound 10 µM
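Further: spheroids exposed to agents for seven days before the viability read.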

Cn1ncc(Cl)c1-c1cc(C(=O)NC(CN)Cc2cccc(F)c2)sc1Cl (centres undefined) + Cc1nc(NC(=O)N2CCCC2C(N)=O)sc1-c1ccnc(C(C)(C)C(F)(F)F)c1
IC50 (second compound 0.0316 µM): 99.8 nM
IC50 (second compound 0.1 µM): 105 nM
IC50 (second compound 0.316 µM): 157 nM
IC50 (second compound 1 µM): 115 nM
IC50 (second compound 3.16 µM): 32.4 nM
IC50 (second compound 10 µM): < 31.6 nM
viability, T/C [1]: 78.8%
viability, T/C [2]: 46.8%
viability, T/C [3]: 32.6%
viability, T/C [4]: 20.9%
viability, T/C [5]: 17.9%
viability, T/C [6]: 3.64%
viability, T/C [7]: 79.4%
viability, T/C [8]: 45%
viability, T/C [9]: 36.2%
viability, T/C [10]: 21.6%
viability, T/C [11]: 16.7%
viability, T/C [12]: 4.82%
viability, T/C [13]: 64.3%
viability, T/C [14]: 63.8%
viability, T/C [15]: 31.2%
viability, T/C [16]: 23%
viability, T/C [17]: 19.3%
viability, T/C [18]: 4.88%
viability, T/C [19]: 59.5%
viability, T/C [20]: 53.6%
viability, T/C [21]: 36.9%
viability, T/C [22]: 21.2%
viability, T/C [23]: 14.4%
viability, T/C [24]: 3.77%
viability, T/C [25]: 48.9%
viability, T/C [26]: 44.9%
viability, T/C [27]: 25.4%
viability, T/C [28]: 18.1%
viability, T/C [29]: 11.6%
viability, T/C [30]: 4.32%
viability, T/C [31]: 34.2%
viability, T/C [32]: 29.4%
viability, T/C [33]: 21.9%
viability, T/C [34]: 14.8%
viability, T/C [35]: 8.76%
viability, T/C [36]: 3.16%

Cn1nccc1Nc1nccc(-c2ccn(C(CO)c3ccc(Cl)c(F)c3)c(=O)c2)n1 (centres undefined) + Cc1nc(NC(=O)N2CCCC2C(N)=O)sc1-c1ccnc(C(C)(C)C(F)(F)F)c1
IC50 (second compound 0.0316 µM): > 10000 nM
IC50 (second compound 0.1 µM): > 10000 nM
IC50 (second compound 0.316 µM): > 10000 nM
IC50 (second compound 1 µM): > 10000 nM
IC50 (second compound 3.16 µM): > 10000 nM
IC50 (second compound 10 µM): < 31.6 nM
viability, T/C [1]: 100%
viability, T/C [2]: 91%
viability, T/C [3]: 101%
viability, T/C [4]: 92.5%
viability, T/C [5]: 97.2%
viability, T/C [6]: 95.1%
viability, T/C [7]: 99.2%
viability, T/C [8]: 92.5%
viability, T/C [9]: 102%
viability, T/C [10]: 88.7%
viability, T/C [11]: 101%
viability, T/C [12]: 91.3%
viability, T/C [13]: 95%
viability, T/C [14]: 91.3%
viability, T/C [15]: 87.7%
viability, T/C [16]: 89.3%
viability, T/C [17]: 108%
viability, T/C [18]: 101%
viability, T/C [19]: 76.2%
viability, T/C [20]: 89.7%
viability, T/C [21]: 77.9%
viability, T/C [22]: 79.1%
viability, T/C [23]: 100%
viability, T/C [24]: 90.3%
viability, T/C [25]: 58.4%
viability, T/C [26]: 67.5%
viability, T/C [27]: 61.9%
viability, T/C [28]: 61.8%
viability, T/C [29]: 72.4%
viability, T/C [30]: 50.1%
viability, T/C [31]: 35.6%
viability, T/C [32]: 41.5%
viability, T/C [33]: 31.4%
viability, T/C [34]: 33.7%
viability, T/C [35]: 25.8%
viability, T/C [36]: 14.7%
